According to EP4596574A1, “GLP-1/GCG/GIP TRIPLE-RECEPTOR AGONIST AND USE THEREOF” (Sunshine Lake Pharma Co., Ltd., priority 2022, dated 2024):
Starred links: 1 amine or outer side, 2 acyl side, 3 side chain; linkers in the order of their positions; H or OH if unused. Non-standard residues stand in square brackets, D forms with d. Residues, ends and D or L forms follow the SMILES beside them. Groups on a side chain read outwards from the residue. *: point of attachment. C20 diacid = O=C(O)CCCCCCCCCCCCCCCCCCC(=O)*; αMePhe(2-F) = C[C@](N)(Cc1ccccc1F)C(=O)O; γGlu = O=C(O)[C@H](CCC(=O)[*:2])N[*:1]; AEEA = NCCOCCOCC(=O)O; Aib = CC(C)(N)C(=O)O

Columns and labels:
Format in all cases: cell-based
GCGR = target: T1, GCGR (Homo sapiens, UniProt P47871); test: In vitro cell activity, cAMP production in HEK293 cells expressing GCGR; settings: HEK293-GCGR cells, cAMP; read-out: GCGR (EC50)
T1 construct: expressed in transfected cells; host or cells: HEK293 (HEK293-GCGR)
Summary of the method: (§1)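 Assay format: cells at 4×10^5 cells/mL, cAMP sensed by d2/cryptate FRET pair, dual-wavelength read at 665 and 620 nm. Potency expressed as EC50 from nonlinear fitting.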

GIPR = target: T2, GIPR (Homo sapiens, UniProt P48546); test: In vitro cell activity, cAMP production in HEK293 cells expressing GIPR; settings: HEK293-GIPR cells, cAMP; read-out: GIPR (EC50)
T2 construct: expressed in transfected cells; host or cells: HEK293 (HEK293-GIPR)
T2 sequence (P48546 22-466): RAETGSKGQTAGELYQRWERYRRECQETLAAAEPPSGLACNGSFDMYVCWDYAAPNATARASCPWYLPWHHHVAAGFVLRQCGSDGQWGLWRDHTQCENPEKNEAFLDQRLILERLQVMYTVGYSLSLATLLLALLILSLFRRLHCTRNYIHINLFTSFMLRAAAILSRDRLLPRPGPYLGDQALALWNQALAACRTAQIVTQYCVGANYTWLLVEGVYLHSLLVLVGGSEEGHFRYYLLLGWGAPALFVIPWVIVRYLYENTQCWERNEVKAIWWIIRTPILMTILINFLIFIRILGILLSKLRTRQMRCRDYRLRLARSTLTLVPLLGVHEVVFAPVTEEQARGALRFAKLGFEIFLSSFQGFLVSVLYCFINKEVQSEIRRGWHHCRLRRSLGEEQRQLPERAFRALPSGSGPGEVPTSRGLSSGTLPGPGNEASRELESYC
Summary of the method: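 cAMP accumulation is quantified by homogeneous TR-FRET (cAMP-d2 plus anti-cAMP cryptate) in GIPR-expressing HEK293 cells seeded from a 4×10^5 cells/mL suspension and treated with compound. The signal ratio is plotted against concentration and fitted to a four-parameter curve to give EC50.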

GLP-1R = target: T3, GLP-1R (Homo sapiens, UniProt P43220); test: In vitro cell activity, cAMP production in HEK293 cells expressing GLP-1R; settings: HEK293-GLP-1R cells, cAMP; read-out: GLP-1R (EC50)
T3 construct: expressed in transfected cells; host or cells: HEK293 (HEK293-GLP-1R)
Summary of the method: as §1

T3 sequence (P43220 24-463, species assumed): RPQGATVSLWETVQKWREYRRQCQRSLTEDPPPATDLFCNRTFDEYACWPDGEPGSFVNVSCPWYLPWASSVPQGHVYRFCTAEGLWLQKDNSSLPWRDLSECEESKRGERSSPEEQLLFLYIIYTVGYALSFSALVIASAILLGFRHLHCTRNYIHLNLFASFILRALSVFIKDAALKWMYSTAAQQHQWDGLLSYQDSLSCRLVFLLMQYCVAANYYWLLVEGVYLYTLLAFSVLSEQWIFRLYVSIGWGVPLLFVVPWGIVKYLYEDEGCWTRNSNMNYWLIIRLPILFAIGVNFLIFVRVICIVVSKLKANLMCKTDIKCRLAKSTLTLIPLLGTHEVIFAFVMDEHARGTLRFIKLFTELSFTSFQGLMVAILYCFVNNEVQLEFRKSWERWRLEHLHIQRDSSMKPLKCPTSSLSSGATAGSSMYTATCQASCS
T1 sequence (P47871 26-477, species assumed): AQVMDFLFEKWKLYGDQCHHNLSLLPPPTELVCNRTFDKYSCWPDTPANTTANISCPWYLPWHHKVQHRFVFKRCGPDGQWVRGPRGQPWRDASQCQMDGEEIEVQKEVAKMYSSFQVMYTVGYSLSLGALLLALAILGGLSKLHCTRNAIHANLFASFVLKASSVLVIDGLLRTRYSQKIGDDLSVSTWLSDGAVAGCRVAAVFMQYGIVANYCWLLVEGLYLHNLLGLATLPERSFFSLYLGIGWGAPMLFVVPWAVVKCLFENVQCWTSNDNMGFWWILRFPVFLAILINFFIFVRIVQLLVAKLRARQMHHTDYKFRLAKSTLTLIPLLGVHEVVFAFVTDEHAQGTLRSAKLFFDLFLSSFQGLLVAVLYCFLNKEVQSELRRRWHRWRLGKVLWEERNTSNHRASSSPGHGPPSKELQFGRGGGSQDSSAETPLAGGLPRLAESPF

| Structure (SMILES) | EC50 (GCGR) [nM] | EC50 (GIPR) [nM] | EC50 (GLP-1R) [nM] |
| --- | --- | --- | --- |
| CC[C@H](C)[C@H](NC(=O)[C@H](CCC(=O)O)NC(=O)[C@H](CC(=O)O)NC(=O)[C@H](CC(C)C)NC(=O)[C@H](CC(C)C)NC(=O)[C@@H](NC(=O)[C@H](CO)NC(=O)[C@H](Cc1ccc(O)cc1)NC(=O)[C@H](CC(=O)O)NC(=O)[C@H](CO)NC(=O)[C@@H](NC(=O)[C@](C)(Cc1ccccc1F)NC(=O)[C@@H](NC(=O)CNC(=O)[C@H](CCC(N)=O)NC(=O)C(C)(C)NC(=O)[C@@H](N)Cc1ccc(O)cc1)[C@@H](C)O)[C@@H](C)O)[C@@H](C)CC)C(=O)N[C@@H](C)C(=O)N[C@@H](CCC(N)=O)C(=O)N[C@@H](CCCCNC(=O)COCCOCCNC(=O)COCCOCCNC(=O)CC[C@H](NC(=O)CCCCCCCCCCCCCCCCCCC(=O)O)C(=O)O)C(=O)N[C@@H](C)C(=O)N[C@@H](Cc1ccccc1)C(=O)N[C@H](C(=O)N[C@@H](CCC(N)=O)C(=O)N[C@@H](Cc1c[nH]c2ccccc12)C(=O)N[C@@H](CC(C)C)C(=O)N[C@H](C(=O)N[C@@H](C)C(=O)NCC(=O)NCC(=O)N1CCC[C@H]1C(=O)N[C@@H](CO)C(=O)N[C@@H](CO)C(=O)NCC(=O)N[C@@H](C)C(=O)N1CCC[C@H]1C(=O)N1CCC[C@H]1C(=O)N1CCC[C@H]1C(=O)N[C@@H](CO)C(=O)O)[C@@H](C)CC)C(C)C [HEC-PT100] (H-Y[Aib]QGT[αMePhe(2-F)]TSDYSILLDEIAQK([AEEA-AEEA-γGlu-C20 diacid])AFVQWLIAGGPSSGAPPPS-OH) | 9.58 | 0.0518 | 0.0978 |
| CC[C@H](C)[C@H](NC(=O)[C@H](CO)NC(=O)[C@H](Cc1ccc(O)cc1)NC(=O)[C@H](CC(=O)O)NC(=O)[C@H](CO)NC(=O)[C@@H](NC(=O)[C@](C)(Cc1ccccc1F)NC(=O)[C@@H](NC(=O)CNC(=O)[C@H](CCC(N)=O)NC(=O)C(C)(C)NC(=O)[C@@H](N)Cc1ccc(O)cc1)[C@@H](C)O)[C@@H](C)O)C(=O)N[C@@H](CC(C)C)C(=O)N[C@@H](CC(C)C)C(=O)N[C@@H](CC(=O)O)C(=O)N[C@@H](CCC(=O)O)C(=O)N[C@@H](CCCCNC(=O)COCCOCCNC(=O)CC[C@H](NC(=O)CCCCCCCCCCCCCCCCC(=O)O)C(=O)O)C(=O)N[C@@H](CCCCN)C(=O)N[C@@H](CCC(N)=O)C(=O)NC(C)(C)C(=O)N[C@@H](CCC(=O)O)C(=O)N[C@@H](Cc1ccccc1)C(=O)N[C@H](C(=O)N[C@@H](CCC(=O)O)C(=O)N[C@@H](Cc1c[nH]c2ccccc12)C(=O)N[C@@H](CC(C)C)C(=O)N[C@@H](CC(C)C)C(=O)N[C@@H](C)C(=O)NCC(=O)NCC(=O)N1CCC[C@H]1C(=O)N[C@@H](CO)C(=O)N[C@@H](CO)C(=O)NCC(=O)N[C@@H](C)C(=O)N1CCC[C@H]1C(=O)N1CCC[C@H]1C(=O)N1CCC[C@H]1C(=O)N[C@@H](CO)C(N)=O)[C@@H](C)CC [HEC-PT129] | 0.525 | 0.0439 | 0.141 |
| CC[C@H](C)[C@H](NC(=O)[C@H](Cc1ccccc1)NC(=O)[C@H](CC(=O)O)NC(=O)[C@H](CCCNC(=N)N)NC(=O)[C@H](CCC(N)=O)NC(=O)[C@H](C)NC(=O)[C@H](CCCCNC(=O)COCCOCCNC(=O)CC[C@H](NC(=O)CCCCCCCCCCCCCCCCCCC(=O)O)C(=O)O)NC(=O)[C@H](CCC(=O)O)NC(=O)[C@H](CC(=O)O)NC(=O)[C@H](CC(C)C)NC(=O)[C@H](CC(C)C)NC(=O)[C@@H](NC(=O)[C@H](CO)NC(=O)[C@H](Cc1ccc(O)cc1)NC(=O)[C@H](CC(=O)O)NC(=O)[C@H](CO)NC(=O)[C@@H](NC(=O)[C@](C)(Cc1ccccc1F)NC(=O)[C@@H](NC(=O)CNC(=O)[C@H](CCC(N)=O)NC(=O)C(C)(C)NC(=O)[C@@H](N)Cc1ccc(O)cc1)[C@@H](C)O)[C@@H](C)O)[C@@H](C)CC)C(=O)N[C@@H](CCC(=O)O)C(=O)N[C@@H](Cc1c[nH]c2ccccc12)C(=O)N[C@@H](CC(C)C)C(=O)N[C@@H](CC(C)C)C(=O)N[C@@H](CCC(=O)O)C(=O)NCC(=O)NCC(=O)N1CCC[C@H]1C(=O)N[C@@H](CO)C(=O)N[C@@H](CO)C(=O)NCC(=O)N[C@@H](C)C(=O)N1CCC[C@H]1C(=O)N1CCC[C@H]1C(=O)N1CCC[C@H]1C(=O)N[C@@H](CO)C(=O)O [HEC-PT64] | 3.57 | 0.248 | 0.6 |
